Each molecule was assayed against Genome polyprotein (Hepatitis C virus genotype 1a (isolate H77), UniProt P27958) (assay: Continuous Spectrophotometric Assay). Settings: not given.
Procedure: Proteolytic cleavage of the ester linkage between the Nva (L-norvaline) and the chromophore (PAP) was monitored for change in absorbance at 370 nm. Initial velocities were determined using linear regression and kinetic constants were obtained by fitting the data to the Michaelis-Menten equation.

Sequence of Genome polyprotein (P27958 1027-1657 limits assumed): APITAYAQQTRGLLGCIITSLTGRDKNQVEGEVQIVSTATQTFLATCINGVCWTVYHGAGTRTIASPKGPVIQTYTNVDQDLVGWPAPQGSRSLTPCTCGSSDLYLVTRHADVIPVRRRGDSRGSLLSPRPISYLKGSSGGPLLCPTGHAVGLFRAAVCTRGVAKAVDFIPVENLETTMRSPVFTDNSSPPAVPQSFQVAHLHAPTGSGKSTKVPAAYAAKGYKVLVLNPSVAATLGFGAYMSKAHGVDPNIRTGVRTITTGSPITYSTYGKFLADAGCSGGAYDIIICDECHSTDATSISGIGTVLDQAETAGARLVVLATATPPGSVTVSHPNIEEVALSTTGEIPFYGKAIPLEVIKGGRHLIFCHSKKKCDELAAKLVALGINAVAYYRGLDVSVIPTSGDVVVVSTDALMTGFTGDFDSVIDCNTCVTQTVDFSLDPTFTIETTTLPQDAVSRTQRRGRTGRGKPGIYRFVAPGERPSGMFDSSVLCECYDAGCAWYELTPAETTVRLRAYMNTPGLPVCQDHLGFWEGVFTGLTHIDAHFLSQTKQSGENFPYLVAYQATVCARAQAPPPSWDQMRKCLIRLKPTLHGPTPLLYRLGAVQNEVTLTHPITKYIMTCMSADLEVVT

Ki [nM] | Structure (SMILES)
36 | CCCC(NC(=O)[C@@H]1C[C@@H]2CN1C(=O)[C@H](C1CCCCC1)NC(=O)Cc1cccc(c1)OCCCN2S(=O)(=O)c1ccccc1)C(=O)C(=O)NCC(=O)N[C@H](C(=O)N(C)C)c1ccccc1 (stereo partly drawn) [3-{[(7R,9S,12S)-6-(benzenesulfonyl)-12-cyclohexyl-11,14-dioxo-2-oxa-6,10,13-triazatricyclo[14.3.1.1^{7,10}]henicosa-1(20),16,18-trien-9-yl]formamido}-N-({[(S)-(dimethylcarbamoyl)(phenyl)methyl]carbamoyl}methyl)-2-oxohexanamide]
3300 | CCCC(NC(=O)[C@@H]1C[C@@H]2CN1C(=O)[C@H](C1CCCCC1)NC(=O)Cc1cccc(c1)OCCCS2(=O)=O)C(=O)C(=O)NCC(=O)N[C@H](C(=O)N(C)C)c1ccccc1 (stereo partly drawn) [(2S)-({N-[3-({[(7R,9S,12S)-12-cyclohexyl-6,6-dioxido-11,14-dioxo-2-oxa-6-thia-10,13-diazatricyclo[14.3.1.17,10]henicosa-1(20),16,18-trien-9-yl]carbonyl}amino)-2-oxohexanoyl]glycyl}amino)(phenyl)acetic acid N,N-dimethyl amide]

Same assay, conditions: pH 6.5; 30 °C

Structure (SMILES) | Ki [nM]
CCCC(NC(=O)[C@@H]1C[C@@H]2CN1C(=O)[C@H](C1CCCCC1)NC(=O)Cc1cccc(c1)OCCCCO2)C(=O)C(=O)NCC(=O)N[C@H](C(=O)N(C)C)c1ccccc1 (stereo partly drawn) [3-{[(5S,8S,10R)-5-cyclohexyl-3,6-dioxo-11,16-dioxa-4,7-diazatricyclo[15.3.1.1^{7,10}]docosa-1(20),17(21),18-trien-8-yl]formamido}-N-({[(S)-(dimethylcarbamoyl)(phenyl)methyl]carbamoyl}methyl)-2-oxohexanamide] | 7
CCCC(NC(=O)[C@@H]1C[C@@H]2CN1C(=O)[C@H](C1CCCCC1)NC(=O)Cc1cccc(c1)OCCO2)C(=O)C(=O)NCC(=O)N[C@H](C(=O)N(C)C)c1ccccc1 (stereo partly drawn) [3-{[(6R,8S,11S)-11-cyclohexyl-10,13-dioxo-2,5-dioxa-9,12-diazatricyclo[13.3.1.1^{6,9}]icosa-1(19),15,17-trien-8-yl]formamido}-N-({[(S)-(dimethylcarbamoyl)(phenyl)methyl]carbamoyl}methyl)-2-oxohexanamide] | 30
CCCC(NC(=O)[C@@H]1C[C@@H]2CN1C(=O)[C@H](C1CCCCC1)NC(=O)Cc1cccc(c1)OCCCS2)C(=O)C(=O)NCC(=O)N[C@H](C(=O)N(C)C)c1ccccc1 (stereo partly drawn) [(2S)-({N-[3-({[(7R,9S,12S)-12-cyclohexyl-11,14-dioxo-2-oxa-6-thia-10,13-diazatricyclo[14.3.1.17,10]henicosa-1(20),16,18-trien-9-yl]carbonyl}amino)-2-oxohexanoyl]glycyl}amino)(phenyl)acetic acid N,N-dimethyl amide] | 10
CCC[C@H](NC(=O)[C@@H]1C[C@@H]2CN1C(=O)[C@H](C(C)(C)C)NC(=O)Cc1cccc(c1)OCCCO2)C(=O)C(=O)NCC(=O)N[C@H](C(=O)N(C)C)c1ccccc1 [(2S)-({N-[(3S)-3-({[(7R,9S,12S)-12-tert-butyl-11,14-dioxo-2,6-dioxa-10,13-diazatricyclo[14.3.1.17,10]henicosa-1(20),16,18-trien-9-yl]carbonyl}amino)-2-oxohexanoyl]glycyl}amino)(phenyl)acetic acid N,N-dimethyl amide] | 15
CCC[C@H](NC(=O)[C@@H]1C[C@H]2CN1C(=O)[C@H](C(C)(C)C)NC(=O)Cc1cccc(c1)OCCCO2)C(=O)C(=O)NCC(=O)N[C@H](C(=O)N(C)C)c1ccccc1 [(2S)-({N-[(3S)-3-({[(7S,9S,12S)-12-tert-butyl-11,14-dioxo-2,6-dioxa-10,13-diazatricyclo[14.3.1.17,10]henicosa-1(20),16,18-trien-9-yl]carbonyl}amino)-2-oxohexanoyl]glycyl}amino)(phenyl)acetic acid N,N-dimethyl amide] | 130

— BindingDB's records for doi:10.1021/jm050820s (Schering-Plough Research Institute, 2006)
